Non-standard residues stand in square brackets, D forms with d. No end group written: not given here. *: point of attachment. FITC = O=C1OC2(c3ccc(O)cc3Oc3cc(O)ccc32)c2ccc(NC(=S)*)cc21; Ahx = NCCCCCC(=O)O
B1: mGBP1 (protein, UniProt Q01514 1-589, looked up)
Guanylate-binding protein 1: MASEIHMSEPMCLIENTEAQLVINQEALRILSAITQPVVVVAIVGLYRTGKSYLMNKLAGKRTGFSLGSTVQSHTKGIWMWCVPHPKKAGQTLVLLDTEGLEDVEKGDNQNDCWIFALAVLLSSTFIYNSIGTINQQAMDQLHYVTELTDLIKSKSSPDQSDVDNSANFVGFFPIFVWTLRDFSLDLEFDGESITPDEYLETSLALRKGTDENTKKFNMPRLCIRKFFPKRKCFIFDRPGDRKQLSKLEWIQEDQLNKEFVEQVAEFTSYIFSYSGVKTLSGGITVNGPRLKSLVQTYVSAICSGELPCMENAVLTLAQIENSAAVQKAITYYEEQMNQKIHMPTETLQELLDLHRTCEREAIEVFMKNSFKDVDQKFQEELGAQLEAKRDAFVKKNMDMSSAHCSDLLEGLFAHLEEEVKQGTFYKPGGYYLFLQRKQELEKKYIQTPGKGLQAEVMLRKYFESKEDLADTLLKMDQSLTEKEKQIEMERIKAEAAEAANRALAEMQKKHEMLMEQKEQSYQEHMKQLTEKMEQERKELMAEQQRIISLKLQEQERLLKQGFQNESLQLRQEIEKIKNMPPPRSCTIL

What was measured:
[1] = test system: F. novicida
[2] = test system: N. meningitidis; experiment: Bacterial viability assay (CFU or O.D.); assay type: cell-based, Neisseria meningitidis; conditions: 6 h
[3] = test system: primary mouse BMDMs; experiment: Cytotoxicity (SYTOX incorporation, LDH release); conditions: 10 µg/ml; IncuCyte live imaging; LDH after 24 h
[4] = test system: F. novicida; assay type: cell-based, Francisella novicida
[5] = test system: human embryonic kidney cells HEK293; experiment: Cytotoxicity (SYTOX incorporation, LDH release); conditions: 10 µg/ml; IncuCyte live imaging; LDH after 24 h
[6] = test system: African green monkey kidney cells Vero; experiment: Cytotoxicity (SYTOX incorporation, LDH release); conditions: 10 µg/ml; IncuCyte live imaging; LDH after 24 h
[7] = test system: human intestinal epithelial cells HT29; experiment: Cytotoxicity (SYTOX incorporation, LDH release); conditions: 10 µg/ml; IncuCyte live imaging; LDH after 24 h
[8] = test system: F. novicida; assay type: cell-based, Francisella novicida; remark: listed apart in the source
[9] = test system: E. coli; experiment: Bacterial viability assay (CFU); assay type: cell-based, Escherichia coli; conditions: 6 h
[10] = test system: N. meningitidis; experiment: Peptide and protein binding assay with SYTOX staining; assay type: cell-based, Neisseria meningitidis; conditions: for Localization to and killing of N. meningitidis (SYTOX): 10 µg/mL FITC-peptide, 1 h or 6 h
[11] = test system: E. coli; experiment: as above; assay type: cell-based, Escherichia coli
[12] = test system: F. novicida; assay type: cell-based, Francisella novicida; remark: listed apart in the source
[13] = test system: F. novicida; assay type: binding, Francisella novicida
[14] = test system: isogenic lpxA mutant of N. meningitidis, which lacks LOS; experiment: Bacterial viability assay (O.D.); assay type: cell-based, Neisseria meningitidis; conditions: mGBP1 protein at 0.4, 4 or 40 µM, 6 h; mutant lacking LOS

| Molecule | Viability of F. novicida (percentage of CFU in relation to solvent control) [1] | Cytotoxicity, SYTOX incorporation or LDH release, BMDMs [3] | SYTOX positive F. novicida, flow cytometry plot [4] [%] | Cytotoxicity, SYTOX incorporation or LDH release, HEK293 [5] | Cytotoxicity, SYTOX incorporation or LDH release, Vero [6] | Cytotoxicity, SYTOX incorporation or LDH release, HT29 [7] | also measured |
| --- | --- | --- | --- | --- | --- | --- | --- |
| FYHTGKSYLMNKLAGKQKGFSL [GBP1^46–67] | little or no antimicrobial activity | – | – | – | – | – | Viability of N. meningitidis (percentage of CFU in relation to solvent control) ([2]; peptide at 10 µg/ml): little or no antimicrobial activity |
| GTDENTKKFNMPRLCIRKFFPKRKCFIFDR [GBP1^209–238] | only GBP1^28–67 and WLBU2 exhibited | None of the peptides exhibited cytotoxicity | 9.2 | None of the peptides exhibited cytotoxicity | None of the peptides exhibited cytotoxicity | None of the peptides exhibited cytotoxicity | – |
| IRILEQIAQPLVVVAIVGLYRTGKSYLMNRLAGRNHGFSL [GBP3^22–61] | bacterial killing in a dose-dependent manner | – | – | – | – | – | Morphology of F. novicida by SEM and TEM [8]: bacterial membrane damage and bacteriolysis of F. novicida |
| LDILSAIQNPV [GBP1^28–38] | killed F. novicida and N. meningitidis similar to that observed for GBP1^28–67 | – | – | – | – | – | Viability of E. coli (percentage of CFU in relation to solvent control) ([9]; peptide at 10 µg/ml): unable to kill E. coli; Viability of N. meningitidis (percentage of CFU in relation to solvent control) ([2]; peptide at 10 µg/ml): killed F. novicida and N. meningitidis similar to that observed for GBP1^28–67 |
| LDILSAIQNPVVVVAIVGFYHTGKSYLMNKLAGKQKGFSL [GBP1^28–67] | – | None of the peptides exhibited cytotoxicity | – | None of the peptides exhibited cytotoxicity | None of the peptides exhibited cytotoxicity | None of the peptides exhibited cytotoxicity | half maximal inhibitory concentration (IC50), viability of F. novicida ([1]; 6 h): 5.04 µg/mL |
| LLKQGFQNESLQLRQEIEKI [GBP1^558–577] | only GBP1^28–67 and WLBU2 exhibited | None of the peptides exhibited cytotoxicity | 4.7 | None of the peptides exhibited cytotoxicity | None of the peptides exhibited cytotoxicity | None of the peptides exhibited cytotoxicity | – |
| RRWVRRVRRWVRRVVRVVRRWVRR [WLBU2, reference compound] | exhibited, in a dose-dependent manner, antibacterial activity | – | 90.7 | – | – | – | Viability of E. coli (percentage of CFU in relation to solvent control) ([9]; peptide at 0.1, 1 or 10 µg/ml): led to death of the bacteria; Uptake of SYTOX by F. novicida, quantification by flow cytometry [4]: induced a significant uptake of SYTOX; Morphology of F. novicida by SEM and TEM [8]: apoptosis-like blebbing and apoptosis-like bodies |
| TFYKPGGYYLFLQRKQELEKKYIQTPGKG [GBP1^424–452] | only GBP1^28–67 and WLBU2 exhibited | None of the peptides exhibited cytotoxicity | 11.4 | None of the peptides exhibited cytotoxicity | None of the peptides exhibited cytotoxicity | None of the peptides exhibited cytotoxicity | – |
| VVVVAIVGFYHTGKSYLMNKLAGKQKGFSL [GBP1^38–67] | little or no antimicrobial activity | – | – | – | – | – | Viability of N. meningitidis (percentage of CFU in relation to solvent control) ([2]; peptide at 10 µg/ml): little or no antimicrobial activity |
| {FITC}-[Ahx]KLIKLLDRLASRSVS [FITC-control peptide, reference compound] | – | – | – | – | – | – | Localization to and killing of N. meningitidis (SYTOX) [10]: this did not occur |
| {FITC}-[Ahx]LDILSAIQNPVVVVAIVGFYHTGKSYLMNKLAGKQKGFSL [FITC-GBP1^28–67] | – | – | – | – | – | – | Localization to bacteria and uptake of SYTOX, E. coli ([11]; 10 µg/mL FITC-peptide, 1 h or 6 h): this did not occur with E. coli; Localization to bacteria and uptake of SYTOX, F. novicida [12]: localized to and induced uptake of SYTOX in F. novicida; Localization to and killing of N. meningitidis (SYTOX) [10]: localized to and killed N. meningitidis; Binding to F. novicida exposed to NaCl, saponin or sarcosyl before addition of peptide [13]: did not impair the binding; FITC signal remaining on F. novicida already bound to peptide after exposure to NaCl, saponin or sarcosyl [13]: loss of FITC signal |
| B1 | killed F. novicida in a dose-dependent manner | – | – | – | – | – | Viability of N. meningitidis (percentage of CFU in relation to solvent control) ([2]; mGBP1 protein at 0.4, 4 or 40 µM): killed N. meningitis in a dose-dependent manner; Viability of WT N. meningitidis (percentage of O.D. in relation to solvent control) ([2]; mGBP1 protein at 0.4, 4 or 40 µM, WT strain): can kill both WT and ΔlpxA mutant strains; Localization to bacteria and uptake of SYTOX, E. coli ([11]; 40 µM mGBP1 protein, 6 h): this did not occur with E. coli; Localization to bacteria and uptake of SYTOX, F. novicida [12]: localized to and induced uptake of SYTOX in F. novicida; Viability of N. meningitidis ΔlpxA mutant (percentage of O.D. in relation to solvent control) [14]: can kill both WT and ΔlpxA mutant strains; Localization to bacteria and uptake of SYTOX, N. meningitidis ([10]; 40 µM mGBP1, 6 h): localized to N. meningitidis, resulting in the uptake of SYTOX; Morphology of F. novicida by SEM [8]: disruption of the membrane integrity, membrane rupture, and expulsion of intracellular content |

Source: article PMC9338265, “Pathogen-selective killing by guanylate-binding proteins as a molecular mechanism leading to inflammasome signaling” (Nature Communications, 2022)
